From patent publication US9695155B2, “Herbicidal substituted pyrimidinyloxy benzene compounds” (E. I. DU PONT DE NEMOURS AND COMPANY, priority 2013, dated 2017)

Experiments:
Test in all cases: Test E preemergence
[1] = test system: corn; format: in vivo, Zea mays; conditions: for Corn plant response rating: scale 0 to 100 (0 no effect, 100 complete control)
In short: (§1)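 Response was scored visually on a 0-100 scale (100 = complete control) versus controls after 14 to 21 days in the greenhouse. Test chemicals, formulated with surfactant in a non-phytotoxic solvent mixture, had been applied preemergence to seeds in silt loam soil or postemergence to 1- to 4-leaf plants in potting medium.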

[2] = test system: velvetleaf; format: in vivo, Abutilon theophrasti; conditions: for Velvetleaf plant response rating: scale 0 to 100 (0 no effect, 100 complete control)
Description: (§2) Seeds of plant species selected from corn (Zea mays), soybean (Glycine max), velvetleaf (Abutilon theophrasti), lambsquarters (Chenopodium album), wild poinsettia (Euphorbia heterophylla), palmer pigweed (Amaranthus palmeri), waterhemp (common waterhemp, Amaranthus rudis), surinam grass (Brachiaria decumbens), large (Lg) crabgrass (Digitaria sanguinalis), Brazilian crabgrass (Digitaria horizontalis), fall panicum (Panicum dichotomiflorum), giant foxtail (Setaria faberii), green foxtail (Setaria viridis), goosegrass (Eleusine indica), johnsongrass (Sorghum halepense), ragweed (common ragweed, Ambrosia elatior), barnyardgrass (Echinochloa crus-galli), sandbur (southern sandbur, Cenchrus echinatus), arrowleaf sida (Sida rhombifolia), Italian ryegrass (Lolium multiflorum), dayflower (Virginia (VA) dayflower, Commelina virginica), field bindweed (Convolvulus arvensis), morningglory (Ipomoea coccinea), nightshade (eastern black nightshade, Solanum ptycanthum), kochia (Kochia scoparia), yellow nutsedge (Cyperus esculentus), cocklebur (common cocklebur, Xanthium strumarium), smartweed (ladysthumb smartweed, and hairy beggarticks (Bidens pilosa), were planted into a silt loam soil and treated preemergence with test chemicals formulated in a non-phytotoxic solvent mixture which included a surfactant.
(§3) At the same time, plants from these crop and weed species and also horseweed (Canada horseweed, Conyza canadensis), waterhemp_RES1, (ALS & Triazine resistant common waterhemp, Amaranthus rudis), and waterhemp_RES2, (ALS & HPPD resistant common waterhemp, Amaranthus rudis) were planted in pots containing Redi-Earth® planting medium (Scotts Company, 14111 Scottslawn Road, Marysville, Ohio 43041) comprising spaghnum peat moss, vermiculite, wetting agent and starter nutrients were treated with postemergence applications of test chemicals formulated in the same manner. Plants ranged in height from 2 to 18 cm for postemergence treatments (1- to 4-leaf stage). Treated plants and controls were maintained in a greenhouse for 14 to 21 days, after which time all species were compared to controls and visually evaluated. Plant response ratings, summarized in Table E, are based on a scale of 0 to 100 where 0 is no effect and 100 is complete control. A dash (-) response means no test result.

[3] = test system: lambsquarters; format: in vivo, Chenopodium album; conditions: for Lambsquarters plant response rating: scale 0 to 100 (0 no effect, 100 complete control)
In short: as §1

[4] = test system: wild poinsettia; format: in vivo, Euphorbia heterophylla; conditions: for Poinsettia, Wild plant response rating: scale 0 to 100 (0 no effect, 100 complete control)
Description: as §2, §3

[5] = test system: large (Lg) crabgrass; format: in vivo, Digitaria sanguinalis; conditions: for Crabgrass, Large plant response rating: scale 0 to 100 (0 no effect, 100 complete control)
In short: as §1

[6] = test system: Brazilian crabgrass; format: in vivo, Digitaria horizontalis; conditions: for Crabgrass, Brazil plant response rating: scale 0 to 100 (0 no effect, 100 complete control)
In short: as §1

[7] = test system: green foxtail; format: in vivo, Setaria viridis; conditions: for Foxtail, Green plant response rating: scale 0 to 100 (0 no effect, 100 complete control)
In short: as §1

[8] = test system: sandbur; format: in vivo, Cenchrus echinatus; conditions: for Sandbur plant response rating: scale 0 to 100 (0 no effect, 100 complete control)
In short: as §1

[9] = test system: kochia; format: in vivo, Kochia scoparia; conditions: for Kochia plant response rating: scale 0 to 100 (0 no effect, 100 complete control)
In short: as §1

[10] = test system: yellow nutsedge; format: in vivo, Cyperus esculentus; conditions: for Nutsedge, Yellow plant response rating: scale 0 to 100 (0 no effect, 100 complete control)
Description: as §2, §3

[11] = 125 g ai/ha, scale 0 to 100, 0 no effect, 100 complete control
[12] = 250 g ai/ha, scale 0 to 100, 0 no effect, 100 complete control
[13] = 8 g ai/ha, scale 0 to 100, 0 is no effect, 100 is complete control

## N#Cc1cccc(Oc2ncc(Cl)cn2)c1-n1cc(C(F)(F)F)cn1 [Compound 58, 3-[(5-chloro-2-pyrimidinyl)oxy]-2-[4-(trifluoromethyl)-1H-pyrazol-1-yl]benzonitrile]
[1]; 16 g ai/ha
  Corn plant response rating: 0
[1]; 31 g ai/ha
  Corn plant response rating: 5
[1]; 62 g ai/ha
  Corn plant response rating: 40
[1]; [11]
  Plant response rating, Corn: 65
[1]; [12]
  Plant response rating, Corn: 70
[2]; 16 g ai/ha
  Velvetleaf plant response rating: 40
[2]; 31 g ai/ha
  Velvetleaf plant response rating: 70
[2]; 62 g ai/ha
  Velvetleaf plant response rating: 90
[2]; [11]
  Plant response rating, Velvetleaf: 100
[2]; [12]
  Plant response rating, Velvetleaf: 100
[3]; 16 g ai/ha
  Lambsquarters plant response rating: 98
[3]; 31 g ai/ha
  Lambsquarters plant response rating: 98
[3]; 62 g ai/ha
  Lambsquarters plant response rating: 98
[3]; [11]
  Plant response rating, Lambsquarters: 98
[3]; [12]
  Plant response rating, Lambsquarters: 98
[4]; 16 g ai/ha
  Poinsettia, Wild plant response rating: 5
[4]; 31 g ai/ha
  Poinsettia, Wild plant response rating: 15
[4]; 62 g ai/ha
  Poinsettia, Wild plant response rating: 90
[4]; [11]
  Plant response rating, Poinsettia, Wild: 100
[4]; [12]
  Plant response rating, Poinsettia, Wild: 100
[5]; 16 g ai/ha
  Crabgrass, Large plant response rating: 75
[5]; 31 g ai/ha
  Crabgrass, Large plant response rating: 100
[5]; 62 g ai/ha
  Crabgrass, Large plant response rating: 100
[5]; [11]
  Plant response rating, Crabgrass, Large: 100
[5]; [12]
  Plant response rating, Crabgrass, Large: 100
[6]; 16 g ai/ha
  Crabgrass, Brazil plant response rating: 100
[6]; 31 g ai/ha
  Crabgrass, Brazil plant response rating: 100
[6]; 62 g ai/ha
  Crabgrass, Brazil plant response rating: 100
[6]; [11]
  Plant response rating, Crabgrass, Brazil: 100
[6]; [12]
  Plant response rating, Crabgrass, Brazil: 100
[7]; 16 g ai/ha
  Foxtail, Green plant response rating: 65
[7]; 31 g ai/ha
  Foxtail, Green plant response rating: 95
[7]; 62 g ai/ha
  Foxtail, Green plant response rating: 100
[7]; [11]
  Plant response rating, Foxtail, Green: 100
[7]; [12]
  Plant response rating, Foxtail, Green: 100
[8]; 16 g ai/ha
  Sandbur plant response rating: 0
[8]; 31 g ai/ha
  Sandbur plant response rating: 20
[8]; 62 g ai/ha
  Sandbur plant response rating: 75
[8]; [11]
  Plant response rating, Sandbur: 90
[8]; [12]
  Plant response rating, Sandbur: 95
[9]; 16 g ai/ha
  Kochia plant response rating: 35
[9]; 31 g ai/ha
  Kochia plant response rating: 100
[9]; 62 g ai/ha
  Kochia plant response rating: 100
[9]; [11]
  Plant response rating, Kochia: 100
[9]; [12]
  Plant response rating, Kochia: 100
[10]; 16 g ai/ha
  Nutsedge, Yellow plant response rating: 0
[10]; 31 g ai/ha
  Nutsedge, Yellow plant response rating: 5
[10]; 62 g ai/ha
  Nutsedge, Yellow plant response rating: 25
[10]; [11]
  Plant response rating, Nutsedge, Yellow: 60
[10]; [12]
  Plant response rating, Nutsedge, Yellow: 80

## Clc1cnc(Oc2ccccc2-n2cc(Br)cn2)nc1 [Compound 7, 2-[2-(4-bromo-1H-pyrazol-1-yl)phenoxy]-5-chloropyrimidine]
[1]; [13]
  Plant response rating, Corn: 0
[1]; 16 g ai/ha
  Corn plant response rating: 0
[1]; 31 g ai/ha
  Corn plant response rating: 0
[1]; 62 g ai/ha
  Corn plant response rating: 0
[1]; [11]
  Plant response rating, Corn: 0
[2]; [13]
  Plant response rating, Velvetleaf: 20
[2]; 16 g ai/ha
  Velvetleaf plant response rating: 50
[2]; 31 g ai/ha
  Velvetleaf plant response rating: 65
[2]; 62 g ai/ha
  Velvetleaf plant response rating: 98
[2]; [11]
  Plant response rating, Velvetleaf: 100
[3]; [13]
  Plant response rating, Lambsquarters: 0
[3]; 16 g ai/ha
  Lambsquarters plant response rating: 0
[3]; 31 g ai/ha
  Lambsquarters plant response rating: 75
[3]; 62 g ai/ha
  Lambsquarters plant response rating: 98
[3]; [11]
  Plant response rating, Lambsquarters: 100
[4]; [13]
  Plant response rating, Poinsettia, Wild: 0
[4]; 16 g ai/ha
  Poinsettia, Wild plant response rating: 0
[4]; 31 g ai/ha
  Poinsettia, Wild plant response rating: 0
[4]; [11]
  Plant response rating, Poinsettia, Wild: 0
[5]; [13]
  Plant response rating, Crabgrass, Large: 0
[5]; 16 g ai/ha
  Crabgrass, Large plant response rating: 0
[5]; 31 g ai/ha
  Crabgrass, Large plant response rating: 70
[5]; 62 g ai/ha
  Crabgrass, Large plant response rating: 75
[5]; [11]
  Plant response rating, Crabgrass, Large: 98
[6]; [13]
  Plant response rating, Crabgrass, Brazil: 0
[6]; 16 g ai/ha
  Crabgrass, Brazil plant response rating: 0
[6]; 31 g ai/ha
  Crabgrass, Brazil plant response rating: 80
[6]; 62 g ai/ha
  Crabgrass, Brazil plant response rating: 100
[6]; [11]
  Plant response rating, Crabgrass, Brazil: 100
[7]; [13]
  Plant response rating, Foxtail, Green: 0
[7]; 16 g ai/ha
  Foxtail, Green plant response rating: 0
[7]; 31 g ai/ha
  Foxtail, Green plant response rating: 30
[7]; 62 g ai/ha
  Foxtail, Green plant response rating: 35
[7]; [11]
  Plant response rating, Foxtail, Green: 75
[8]; [13]
  Plant response rating, Sandbur: 0
[8]; 16 g ai/ha
  Sandbur plant response rating: 0
[8]; 31 g ai/ha
  Sandbur plant response rating: 0
[8]; 62 g ai/ha
  Sandbur plant response rating: 0
[8]; [11]
  Plant response rating, Sandbur: 35
[9]; [13]
  Plant response rating, Kochia: 0
[9]; 16 g ai/ha
  Kochia plant response rating: 0
[9]; 31 g ai/ha
  Kochia plant response rating: 0
[9]; 62 g ai/ha
  Kochia plant response rating: 50
[9]; [11]
  Plant response rating, Kochia: 95
[10]; [13]
  Plant response rating, Nutsedge, Yellow: 0
[10]; 16 g ai/ha
  Nutsedge, Yellow plant response rating: 0
[10]; 31 g ai/ha
  Nutsedge, Yellow plant response rating: 0
[10]; 62 g ai/ha
  Nutsedge, Yellow plant response rating: 0
[10]; [11]
  Plant response rating, Nutsedge, Yellow: 0

## N#Cc1cnn(-c2c(C#N)cccc2Oc2ncc(F)cn2)c1 [Compound 111]
[1]; 16 g ai/ha
  Corn plant response rating: 0
[1]; 31 g ai/ha
  Corn plant response rating: 0
[1]; 62 g ai/ha
  Corn plant response rating: 0
[1]; [11]
  Plant response rating, Corn: 15
[2]; 16 g ai/ha
  Velvetleaf plant response rating: 5
[2]; 31 g ai/ha
  Velvetleaf plant response rating: 10
[2]; 62 g ai/ha
  Velvetleaf plant response rating: 60
[2]; [11]
  Plant response rating, Velvetleaf: 75
[3]; 16 g ai/ha
  Lambsquarters plant response rating: 50
[3]; 31 g ai/ha
  Lambsquarters plant response rating: 80
[3]; 62 g ai/ha
  Lambsquarters plant response rating: 98
[3]; [11]
  Plant response rating, Lambsquarters: 100
[4]; 16 g ai/ha
  Poinsettia, Wild plant response rating: 15
[4]; 31 g ai/ha
  Poinsettia, Wild plant response rating: 30
[4]; 62 g ai/ha
  Poinsettia, Wild plant response rating: 70
[4]; [11]
  Plant response rating, Poinsettia, Wild: 85
[5]; 16 g ai/ha
  Crabgrass, Large plant response rating: 15
[5]; 31 g ai/ha
  Crabgrass, Large plant response rating: 35
[5]; 62 g ai/ha
  Crabgrass, Large plant response rating: 90
[5]; [11]
  Plant response rating, Crabgrass, Large: 100
[6]; 16 g ai/ha
  Crabgrass, Brazil plant response rating: 0
[6]; 31 g ai/ha
  Crabgrass, Brazil plant response rating: 30
[6]; 62 g ai/ha
  Crabgrass, Brazil plant response rating: 75
[6]; [11]
  Plant response rating, Crabgrass, Brazil: 100
[7]; 16 g ai/ha
  Foxtail, Green plant response rating: 0
[7]; 31 g ai/ha
  Foxtail, Green plant response rating: 10
[7]; 62 g ai/ha
  Foxtail, Green plant response rating: 70
[7]; [11]
  Plant response rating, Foxtail, Green: 90
[8]; 16 g ai/ha
  Sandbur plant response rating: 0
[8]; 31 g ai/ha
  Sandbur plant response rating: 0
[8]; 62 g ai/ha
  Sandbur plant response rating: 0
[8]; [11]
  Plant response rating, Sandbur: 0
[9]; 16 g ai/ha
  Kochia plant response rating: 0
[9]; 31 g ai/ha
  Kochia plant response rating: 10
[9]; 62 g ai/ha
  Kochia plant response rating: 95
[9]; [11]
  Plant response rating, Kochia: 95
[10]; 16 g ai/ha
  Nutsedge, Yellow plant response rating: 0
[10]; 31 g ai/ha
  Nutsedge, Yellow plant response rating: 0
[10]; 62 g ai/ha
  Nutsedge, Yellow plant response rating: 0
[10]; [11]
  Plant response rating, Nutsedge, Yellow: 15
